Experimental data published in patent US20060270648A1, “USE OF POLYAMINES WITH ANTIBIOTICS” (priority 2005, published 2006).
In brackets after ≈: the same amount, converted by molar mass. Like-named read-outs stand apart in the source and are kept apart here.

How the values were obtained:
[1] = system: methicillin resistant Staphylococcus aureus (MRSA) Mu50; assay: MIC of antibiotics against MRSA Mu50 with or without spermine; assay type: cell-based; details: for MIC: Staphylococcus aureus, MRSA, read-out: MICs in the presence or absence of spermine (1 mM): No add; for MIC / MICs in the presence or absence of spermine (1 mM): No add: no spermine; for MICs in the presence or absence of spermine (1 mM): Spermine: with 1 mM spermine
[2] = system: MRSA Staphylococcus aureus 700699; assay: MIC of antibiotics against MRSA Staphylococcus aureus 700699 with or without spermine; assay type: cell-based; details: for MIC: Staphylococcus aureus, MRSA, read-out: MICs in the absence or presence of spermine: No add; for MICs in the absence or presence of spermine: Spermine (1 mM): with 1 mM spermine
[3] = system: E. coli (K10, K12, C921-61); assay: MIC of antibiotics against E. coli strains with or without polyamines (FIG. 3); assay type: cell-based; details: E. coli K10, K12, C921-61 and S. typhimurium LT2
[4] = system: Salmonella typhimurium LT2; assay: microbe, parasite or virus in culture; details: Salmonella enterica, read-out: MICs in the indicated concentrations (mM) of polyamines: No add;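 further: Two-fold agar or broth dilution in Mueller-Hinton broth, MIC taken as lowest drug concentration without visible turbidity, tested alone or combined with polyamines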
[5] = system: Salmonella typhimurium LT2; details: for MICs in the indicated concentrations (mM) of polyamines: Spermine (1 mM): with 1 mM spermine; for MICs in the indicated concentrations (mM) of polyamines: Spermidine (20 mM): with 20 mM spermidine;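 on all read-outs here: Two-fold agar or broth dilution in Mueller-Hinton broth, MIC taken as lowest drug concentration without visible turbidity, tested alone or combined with polyamines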
[6] = system: P. aeruginosa PAO1; assay: MIC of antibiotics against P. aeruginosa PAO1 with or without polyamines; assay type: cell-based

Molecule	MIC [1] [µg/mL]	MICs in the presence or absence of spermine (1 mM): Spermine [1] [µg/mL]	MIC ([2]; no spermine) [µg/mL]	MICs in the absence or presence of spermine: Spermine (1 mM) [2] [µg/mL]	also measured
CC1(C)S[C@@H]2[C@H](NC(=O)[C@H](N)c3ccc(O)cc3)C(=O)N2[C@H]1C(=O)O [Amoxicillin]	16	0.5	16	0.5	–
CC1(C)S[C@@H]2[C@H](NC(=O)[C@H](N)c3ccccc3)C(=O)N2[C@H]1C(=O)O [Ampicillin]	≥ 32	2	≥ 32	2	susceptibility with the combination of polyamines and antibiotics [3]: improved susceptibility; MIC [4]: 16 µg/mL (≈ 45.8 µM)
CC1(C)S[C@@H]2[C@H](NC(=O)[C@H](NC(=O)N3CCNC3=O)c3ccccc3)C(=O)N2[C@H]1C(=O)O [Azlocillin]	16	0.5	16	0.5	MICs in the indicated concentrations (mM) of polyamines: Spermine (1 mM) [5]: 4 µg/mL; MICs in the indicated concentrations (mM) of polyamines: Spermidine (20 mM) [5]: 1 µg/mL; susceptibility with the combination of polyamines and antibiotics [3]: improved susceptibility; MIC [4]: 16 µg/mL (≈ 34.7 µM)
C[C@H]1[C@H](NC(=O)/C(=N\OC(C)(C)C(=O)O)c2csc(N)n2)C(=O)N1S(=O)(=O)O [Aztreonam]	–	–	> 1020	>256	–
NCCCCCN [Cadaverine]	–	–	–	–	MICs to carbenicillin in the indicated concentration of polyamines ([6]; 0 mM polyamine): 64 µg/mL; MICs to carbenicillin in the indicated concentration of polyamines ([6]; 0.5 mM polyamine): 64 µg/mL; MICs to carbenicillin in the indicated concentration of polyamines ([6]; 1 mM polyamine): 32 µg/mL; MICs to carbenicillin in the indicated concentration of polyamines ([6]; 5 mM polyamine): 32 µg/mL; MICs to carbenicillin in the indicated concentration of polyamines ([6]; 10 mM polyamine): 32 µg/mL; MICs to carbenicillin in the indicated concentration of polyamines ([6]; 20 mM polyamine): 16 µg/mL
CCN1CCN(C(=O)N[C@@H](C(=O)N[C@@H]2C(=O)N3C(C(=O)O)=C(CSc4nnnn4C)CS[C@H]23)c2ccc(O)cc2)C(=O)C1=O [Cefoperazone]	> 512	16	> 512	>4	–
CO/N=C(\C(=O)N[C@@H]1C(=O)N2C(C(=O)O)=C(COC(C)=O)CS[C@H]12)c1csc(N)n1 [Cefotaxime]	128	1	128	1	–
CC(C)(O/N=C(\C(=O)N[C@@H]1C(=O)N2C(C(=O)[O-])=C(C[n+]3ccccc3)CS[C@H]12)c1csc(N)n1)C(=O)O [Ceftazidime]	256	4	256	4	–
CO/N=C(\C(=O)N[C@@H]1C(=O)N2C(C(=O)O)=C(CSc3nc(=O)c(=O)[nH]n3C)CS[C@H]12)c1csc(N)n1 [Ceftriaxone]	> 512	16	> 512	16	–
O=C(Cc1cccs1)N[C@@H]1C(=O)N2C(C(=O)[O-])=C(C[n+]3ccccc3)CS[C@H]12 [Cephaloridine]	16	0.25	16	0.25	–
CC(=O)OCC1=C(C(=O)O)N2C(=O)[C@@H](NC(=O)CCC[C@@H](N)C(=O)O)[C@H]2SC1 [Cephalosporin C]	–	–	–	>128	MICs in the absence or presence of spermine: No add ([2]; no spermine): >512 µg/mL
CC(=O)OCC1=C(C(=O)O)N2C(=O)[C@@H](NC(=O)Cc3cccs3)[C@H]2SC1 [Cephalothin]	32	4	32	4	–
O=C(N[C@H](CO)[C@H](O)c1ccc([N+](=O)[O-])cc1)C(Cl)Cl [Chloramphenicol]	8	2	8	2	MICs in the indicated concentrations (mM) of polyamines: Spermine (1 mM) [5]: 1 µg/mL; MICs in the indicated concentrations (mM) of polyamines: Spermidine (20 mM) [5]: 1 µg/mL; susceptibility with the combination of polyamines and antibiotics [3]: improved susceptibility; MIC [4]: 2 µg/mL (≈ 6.19 µM)
Cc1onc(-c2ccccc2Cl)c1C(=O)N[C@@H]1C(=O)N2[C@@H]1SC(C)(C)[C@@H]2C(=O)O [Cloxacillin]	≥ 256	1	> 256	2	–
NC[C@H]1O[C@H](O[C@H]2[C@H](O)[C@@H](O[C@H]3O[C@H](CO)[C@@H](O)[C@H](N)[C@H]3O)[C@H](N)C[C@@H]2N)[C@H](O)[C@@H](O)[C@@H]1O [Kanamycin]	–	–	> 16	>16	MICs in the indicated concentrations (mM) of polyamines: Spermine (1 mM) [5]: 2 µg/mL; MICs in the indicated concentrations (mM) of polyamines: Spermidine (20 mM) [5]: 4 µg/mL; MIC [4]: 4 µg/mL (≈ 8.26 µM)
CO[C@@]1(NC(=O)C(C(=O)O)c2ccc(O)cc2)C(=O)N2C(C(=O)O)=C(CSc3nnnn3C)CO[C@@H]21 (stereo partly drawn) [Moxalactam]	–	–	> 512	>32	–
CCn1cc(C(=O)O)c(=O)c2cc(F)c(N3CCNCC3)cc21 [Norfioxacin]	–	64	–	–	MICs in the presence or absence of spermine (1 mM): No add [1]: 128 µg/mL
CC1(C)S[C@@H]2[C@H](NC(=O)Cc3ccccc3)C(=O)N2[C@H]1C(=O)O [Penicillin G]	–	0.25	–	0.25	MICs in the indicated concentrations (mM) of polyamines: No add ([5]; no polyamine): 16 µg/mL; MICs in the indicated concentrations (mM) of polyamines: Spermine (1 mM) [5]: 2 µg/mL; MICs in the indicated concentrations (mM) of polyamines: Spermidine (20 mM) [5]: 2 µg/mL; susceptibility with the combination of polyamines and antibiotics [3]: improved susceptibility; MICs in the presence or absence of spermine (1 mM): No add [1]: 16 µg/mL; MICs in the absence or presence of spermine: No add ([2]; no spermine): 16 µg/mL
NCCCCN [Putrescine]	–	–	–	–	MICs to carbenicillin in the indicated concentration of polyamines ([6]; 0 mM polyamine): 64 µg/mL; MICs to carbenicillin in the indicated concentration of polyamines ([6]; 0.5 mM polyamine): 64 µg/mL; MICs to carbenicillin in the indicated concentration of polyamines ([6]; 1 mM polyamine): 32 µg/mL; MICs to carbenicillin in the indicated concentration of polyamines ([6]; 5 mM polyamine): 32 µg/mL; MICs to carbenicillin in the indicated concentration of polyamines ([6]; 10 mM polyamine): 32 µg/mL; MICs to carbenicillin in the indicated concentration of polyamines ([6]; 20 mM polyamine): 16 µg/mL
CN[C@@H]1[C@H](O)[C@H](NC)[C@H]2O[C@@]3(O)C(=O)C[C@@H](C)O[C@H]3O[C@@H]2[C@H]1O [Spectinomycin]	–	–	–	–	MICs in the indicated concentrations (mM) of polyamines: Spermine (1 mM) [5]: 32 µg/mL; MICs in the indicated concentrations (mM) of polyamines: Spermidine (20 mM) [5]: 32 µg/mL; susceptibility with the combination of polyamines and antibiotics [3]: improved susceptibility; MIC [4]: 32 µg/mL (≈ 96.3 µM)
CN(C)[C@@H]1C(O)=C(C(N)=O)C(=O)[C@@]2(O)C(O)=C3C(=O)c4c(O)cccc4[C@@](C)(O)[C@H]3C[C@@H]12 [Tetracycline]	32	8	32	4	MICs in the indicated concentrations (mM) of polyamines: Spermine (1 mM) [5]: 2 µg/mL; MICs in the indicated concentrations (mM) of polyamines: Spermidine (20 mM) [5]: 2 µg/mL; MIC [4]: 2 µg/mL (≈ 4.5 µM)
CN[C@H](CC(C)C)C(=O)N[C@H]1C(=O)N[C@@H](CC(N)=O)C(=O)N[C@H]2C(=O)N[C@H]3C(=O)N[C@H](C(=O)N[C@H](C(=O)O)c4cc(O)cc(O)c4-c4cc3ccc4O)[C@H](O)c3ccc(c(Cl)c3)Oc3cc2cc(c3O[C@@H]2O[C@H](CO)[C@@H](O)[C@H](O)[C@H]2O[C@H]2C[C@](C)(N)[C@H](O)[C@H](C)O2)Oc2ccc(cc2Cl)[C@H]1O [Vancomycin]	–	–	–	4	MIC [2]: 4 µg/mL
Gentamicin	–	–	–	256	MICs in the absence or presence of spermine: No add ([2]; no spermine): 256 µg/mL
